Melting point data for 51 compounds are collected here from a melting point compilation (Tetko et al.).

Non-standard residues stand in square brackets, D forms with d. Residues, ends and D or L forms follow the SMILES beside them. *: point of attachment. Cyclohexanecarbonyl = O=C(C1CCCCC1)*; Phe(2-Me) = Cc1ccccc1C[CH](N)C(=O)O; Tle = CC(C)(C)[CH](N)C(=O)O; X3 = CC(C)(C)OC(=O)CCC(=O)*; X4 = CCC(N*)C(OC)OC; Bn = c1ccc(C*)cc1; OtBu = CC(C)(C)O* A value given as a limit tells only on which side of the number the result lay.

One may read the melting point as the temperature of the solid-liquid transition. As to `CC(C)(C)c1cc(C(C)(C)C)c2op(Op3oc4c(C(C)(C)C)cc(C(C)(C)C)cc4c4cc(C(C)(C)C)cc(C(C)(C)C)c4o3)oc3c(C(C)(C)C)cc(C(C)(C)C)cc3c2c1`, the melting point worked out at 269 °C.
In the case of `CCCCOC(=O)Nc1nc(CN(C)C(=O)N[C@H](C(=O)N[C@@H](Cc2ccccc2)C[C@H](O)[C@H](Cc2ccccc2)NC(=O)[C@@H](NC(=O)N(C)Cc2csc(NC(=O)OCCCC)n2)C(C)C)C(C)C)cs1`, the melting point lay within 115 to 120 °C.
Take `CC12CC3CC(C)(C1)CC(N)(C3)C2`: the melting point is 153 °C.
The compound `O=C(Nc1ccc(Br)cc1)OC1CCCNC1` (stereo unspecified) registered a melting point of 169 to 170 °C.
The figure for `COC(=O)C(CC(C)C)NC(=O)C(Cc1ccc(OCc2ccccc2)cc1)NC(=O)C(COCc1ccccc1)NC(=O)C(Cc1c[nH]c2ccccc12)NC(=O)C1CCCCC1` (Cyclohexanecarbonyl-WS(Bn)Y(Bn)L-OMe; configuration not given here) is 158 to 160 °C; for `CCCc1[nH]c2ccccc2c1C1(c2ccc(N(CC)CC)cc2OCCOCCOc2cc(N(CC)CC)ccc2C2(c3c(CCC)[nH]c4ccccc34)OC(=O)c3ccccc32)OC(=O)c2ccccc21` (stereo unspecified) it is 191 to 194 °C; for `CCC(=O)OC1(C(=O)C(O)OC(=O)C(NC(=O)C2CCCN2C(=O)C(C)NC(=O)C(C)NC(=O)N(c2ccccc2)c2ccccc2)C(C)C)CCC2C3CC(C)C4=CC(=O)C=CC4(C)C3C(O)CC21C` (stereo unspecified) it is 150 to 152 °C.
The figure for `O=C1OC(=O)c2ccc3c4c(ccc1c24)C(=O)OC3=O` is 300 °C; for `CCc1nc(OC)c(NC(=O)N2CCN(c3cc(Cl)cc(Cl)c3)CC2)cc1C(=O)NC(C)C(=O)Nc1cc(CO)cc(Nc2c3ccccc3nc3ccccc23)c1` (stereo unspecified) it is 184 to 186 °C.
The figure for `O=C(OCC(OC(=O)C1CCCCC1)C(OC(=O)C1CCCCC1)C(OC(=O)C1CCCCC1)C(COC(=O)C1CCCCC1)OC(=O)C1CCCCC1)C1CCCCC1` (stereo unspecified) is 135 to 140 °C.
For `OP(=S)(C(F)(F)C(F)(F)C(F)(F)C(F)(F)C(F)(F)C(F)(F)C(F)(C(F)(F)F)C(F)(F)F)C(F)(F)C(F)(F)C(F)(F)C(F)(F)C(F)(F)C(F)(F)C(F)(C(F)(F)F)C(F)(F)F`, the melting point was > 300 °C.
For `CN=S(=O)(Cc1ccc(C(F)(F)F)nc1)c1nc(-c2ccc(OC)cc2)cs1` (stereo unspecified), the melting point lay in the range of 158 to 161 °C.
The figure for `O=C(c1ccccc1)c1ccc(C(Cl)(Cl)Cl)cc1` is 109 to 111 °C; for `CC(C)[C@H](NC(=O)N(C)Cc1cscn1)C(=O)N[C@@H](Cc1ccccc1)[C@@H](O)[C@H](O)[C@H](Cc1ccccc1)NC(=O)[C@@H](NC(=O)N(C)Cc1cscn1)C(C)C` it is 92 to 94 °C; for `COc1ccc(-c2cc(C(=O)NCCCCCCc3ccccc3)cc(-c3cccc(C(F)(F)F)c3)c2OCC(=O)O)cc1` it is 153 to 159 °C.
The figure for `CCC(O)C=CC=CC=CC(=O)OCC1OC(OC2C(CO)OC3(OCc4cc(O)cc(O)c43)C(O)C2OC(=O)C=CC=CCC(O)C(C)=CC=CCCC(C)CC)C(O)C(O)C1O` (stereo unspecified) is 193 to 197 °C; for `CCCCCCCCCCCCc1ccc(N=Nc2ccc(C(N)CCNC(=O)CCN(CCC(=O)NCCN(C)c3ccc(N=Nc4ccc(CCCCCCCCCCCC)cc4[N+](=O)[O-])cc3)c3ccc(N=Nc4ccc(CCCCCCCCCCCC)cc4[N+](=O)[O-])cc3)cc2)c([N+](=O)[O-])c1` (stereo unspecified) it is 127 to 129 °C.
The figure for `CC(C)(C)c1cc(CCC(=O)OCC(COC(=O)CCc2cc(C(C)(C)C)c(O)c(C(C)(C)C)c2)(COC(=O)CCc2cc(C(C)(C)C)c(O)c(C(C)(C)C)c2)COC(=O)CCc2cc(C(C)(C)C)c(O)c(C(C)(C)C)c2)cc(C(C)(C)C)c1O` is 55 to 85 °C.
`COc1ccc(OC)c(CCNC(=O)N[C@H](Cc2cc(Br)c(O)c(Br)c2)C(=O)N[C@@H](CCCCN)C(=O)N2CCN(c3ccncc3)CC2)c1` gave a melting point of 135 to 137 °C.
The figure for `Cc1ccc(S(=O)(=O)N2CCN(S(=O)(=O)c3ccc(C)cc3)CC(Cc3ccc(O)cc3)N(S(=O)(=O)c3ccc(C)cc3)N(S(=O)(=O)c3ccc(C)cc3)CC2)cc1` (stereo unspecified) is 192 to 193 °C.
Compound `CCC(CC)Nc1cc(C)nc(Oc2c(C)cc(C)cc2C)c1[N+](=O)[O-]` came in with a melting point of 160 to 162 °C.
The figure for `CCc1nc(OC)c(NC(=O)N2CCN(c3cc(C)cc(C)c3)CC2)cc1C(=O)NC(C)C(=O)Nc1cc(CO)cc(Nc2c3ccccc3nc3c(C)c(C)ccc23)c1` (stereo unspecified) is 176 to 178 °C.
The figure for `Cc1cc(C)c2cccc(OCc3c(Cl)ccc(S(=O)(=O)N4CCC[C@H]4C(=O)NC4CCN(C(=O)CCN(C=NC(=O)OC(C)(C)C)NC(=O)OC(C)(C)C)CC4)c3Cl)c2n1` is 115 to 117 °C; for `O=C(CC(=O)c1cc(F)c(F)cc1F)OCc1ccc(OCCCCCCCCCCC2c3c(c4ccccc4c4ccccc34)-c3c2c2ccccc2c2ccccc32)cc1` it is 58 to 60 °C.
The compound `COC(=O)C(CCNC(=O)c1ccccc1C(=O)O)Oc1c(Br)cc(-c2ccc(-c3c(Cc4ccccc4)sc4ccccc34)cc2)cc1Br` (stereo unspecified) yielded a melting point of 95 to 97 °C.
The figure for `O=C(O)CN(CC(COCc1ccccc1)N(CCCOCc1ccccc1)CC(=O)O)CC(COCc1ccccc1)N(CCCOCc1ccccc1)CC(=O)O` (stereo unspecified) is 150 °C; for `CC(C)[C@H](NC(=O)N(C)Cc1nc2ccccc2[nH]1)C(=O)N[C@@H](Cc1ccccc1)[C@H](O)[C@H](O)[C@H](Cc1ccccc1)NC(=O)[C@@H](NC(=O)N(C)Cc1nc2ccccc2[nH]1)C(C)C` it is 107 to 109 °C.
In turn, `CCCCCCCS(=O)(=O)c1cc2c3cc(S(=O)(=O)CCCCCCC)c(S(=O)(=O)CCCCCCC)cc3c3cc(S(=O)(=O)CCCCCCC)c(S(=O)(=O)CCCCCCC)cc3c2cc1S(=O)(=O)CCCCCCC` registered a melting point of 256 to 258 °C.
The figure for `O=C(Nc1ccc(N2CCNCC2)cc1)c1ccccc1-c1ccccc1` is 176 °C.
The figure for `FC(F)(F)C(F)(F)C(F)(F)C(F)(F)C(F)(F)C(F)(F)CCc1ccc(P(c2ccc(CCC(F)(F)C(F)(F)C(F)(F)C(F)(F)C(F)(F)C(F)(F)F)cc2)c2ccc(CCC(F)(F)C(F)(F)C(F)(F)C(F)(F)C(F)(F)C(F)(F)F)cc2)cc1` is 49.9 to 52.4 °C; for `COc1cc(C(=O)Oc2ccc3c(OC(=O)c4ccc(OCc5ccccc5)c(OC)c4)c4cc(OC(=O)c5ccc(OCc6ccccc6)c(OC)c5)ccc4cc3c2)ccc1OCc1ccccc1` it is 186 to 189 °C; for `CCC(NC(=O)C(CC(C)C)NC(=O)C(NC(=O)C(Cc1ccccc1C)NC(=O)C(CCC(=O)OC(C)(C)C)NC(=O)C(CC(=O)OC(C)(C)C)NC(=O)CCC(=O)OC(C)(C)C)C(C)(C)C)C(OC)OC` (X3-D(OtBu)E(OtBu)[Phe(2-Me)][Tle]L-X4; configuration not given here) it is 242 to 244 °C.
Compound `C=CCOC1OC(CO)C(O)C(OC(=O)CC(CCCCCCCCCCC)OC(=O)CCCCCCCCCCCCC)C1NC(=O)OCC(Cl)(Cl)Cl` (stereo unspecified) gave a melting point of 68 to 70 °C.
Take `CCCCCCCCCCCCc1ccsc1-c1ccc2c(c1)=C(C(C#N)C#N)c1cc3c(cc1=2)C(C(C#N)C#N)=c1cc(-c2sccc2CCCCCCCCCCCC)ccc1=3`: the melting point fell in the range of 232 to 233 °C.
The figure for `CS(C)(=O)=NC(=O)c1cccc(Oc2ccc(C(F)(F)F)cc2Cl)c1` is 110 to 113 °C; for `O=P1(Oc2c(Br)c(Br)c(Br)c(Br)c2Br)OCC2(CO1)COP(=O)(Oc1c(Br)c(Br)c(Br)c(Br)c1Br)OC2` (stereo unspecified) it is 324 to 326 °C; for `Brc1cc(Br)c(Oc2nc(Oc3c(Br)cc(Br)cc3Br)nc(Oc3c(Br)cc(Br)cc3Br)n2)c(Br)c1` it is 215 to 218 °C.
The figure for `Cc1c(Cc2ccccc2)sc2nc(N)[nH]c(=O)c12` is 292 to 294 °C.
The figure for `O=C(O)c1ccc([Si](CCC(F)(F)C(F)(F)C(F)(F)C(F)(F)C(F)(F)C(F)(F)C(F)(F)C(F)(F)C(F)(F)C(F)(F)F)(CCC(F)(F)C(F)(F)C(F)(F)C(F)(F)C(F)(F)C(F)(F)C(F)(F)C(F)(F)C(F)(F)C(F)(F)F)CCC(F)(F)C(F)(F)C(F)(F)C(F)(F)C(F)(F)C(F)(F)C(F)(F)C(F)(F)C(F)(F)C(F)(F)F)cc1` is 134 to 136 °C; for `CCN(CC)CCN=S(=O)(c1ccccc1)c1cccs1` (stereo unspecified) it is 116 °C; for `CCCNc1nc2cccc(C(=O)OCC)c2n1Cc1ccc(-c2ccccc2-c2nnn[nH]2)cc1` it is 170 to 172 °C.
As for `CC(C)c1ccc(S(=O)(=O)OC(c2cc(C(OS(=O)(=O)c3ccc(C(C)C)cc3)(C(F)(F)F)C(F)(F)F)cc(C(OS(=O)(=O)c3ccc(C(C)C)cc3)(C(F)(F)F)C(F)(F)F)c2)(C(F)(F)F)C(F)(F)F)cc1`, the melting point is 105 °C.
In turn, `CC(C)(C)OC(=O)NC(Cc1cc(I)c(Oc2cc(I)c(O)c(I)c2)c(I)c1)C(=O)O` (stereo unspecified) showed a melting point of 212 °C.
The figure for `CCN(CC)CCN=S(=O)(c1cccs1)c1cccs1` is 131 °C; for `O=S(c1cc(C(F)(F)F)[nH]c1-c1ccc(Cl)cc1)C(F)(F)F` (stereo unspecified) it is 198 to 200 °C.
The figure for `CCCCCCCCCCCCCCCC(=O)OCC(CSCC(NC(=O)OCc1cccc2c1Cc1ccccc1-2)C(=O)O)OC(=O)CCCCCCCCCCCCCCC` (mixture of isomers) is 82 to 84 °C; for `CCOC(=O)c1cnc2snc(C)c2c1N(C)S(=O)(=O)c1ccc(Oc2ccncc2)cc1` it is 57 to 60 °C; for `O=C(Nc1c(Cl)cncc1Cl)C(=O)c1cn(Cc2c(F)cccc2[N+](=O)[O-])c2c(O)cccc12` it is 308 to 310 °C.
The figure for `CC(=O)OCC1OC(OC2C(COC(C)=O)OC(OC3C(CO)OC(OCCBr)C(OC(=O)c4ccccc4)C3OC(=O)c3ccccc3)C(OC(C)=O)C2OC(C)=O)C(OC(C)=O)C(OC(C)=O)C1OC(C)=O` (stereo unspecified) is 218 to 220 °C; for `CCCCN(c1nc(NC(C)(C)CC(C)(C)C)nc(N(CCCC)C2CC(C)(C)N(OC3CCCCC3)C(C)(C)C2)n1)C1CC(C)(C)N(OC2CCCCC2)C(C)(C)C1` it is 85 to 103 °C; for `CCCCCCCCCCCCCCCCCCN(CCCCCCCCCCCCCCCCCC)C(=O)c1cc(NS(=O)(=O)c2ccc(Cl)nc2)c2ccccc2c1O` it is 80 to 83 °C.
